Molecular target: T1, human NOX4 (Homo sapiens, UniProt Q9NPH5)
T1 construct: The full-length human NOX4 (NM_016931.3) transcript was cloned; expressed in transfected cells
T1 sequence (Q9NPH5 1-578): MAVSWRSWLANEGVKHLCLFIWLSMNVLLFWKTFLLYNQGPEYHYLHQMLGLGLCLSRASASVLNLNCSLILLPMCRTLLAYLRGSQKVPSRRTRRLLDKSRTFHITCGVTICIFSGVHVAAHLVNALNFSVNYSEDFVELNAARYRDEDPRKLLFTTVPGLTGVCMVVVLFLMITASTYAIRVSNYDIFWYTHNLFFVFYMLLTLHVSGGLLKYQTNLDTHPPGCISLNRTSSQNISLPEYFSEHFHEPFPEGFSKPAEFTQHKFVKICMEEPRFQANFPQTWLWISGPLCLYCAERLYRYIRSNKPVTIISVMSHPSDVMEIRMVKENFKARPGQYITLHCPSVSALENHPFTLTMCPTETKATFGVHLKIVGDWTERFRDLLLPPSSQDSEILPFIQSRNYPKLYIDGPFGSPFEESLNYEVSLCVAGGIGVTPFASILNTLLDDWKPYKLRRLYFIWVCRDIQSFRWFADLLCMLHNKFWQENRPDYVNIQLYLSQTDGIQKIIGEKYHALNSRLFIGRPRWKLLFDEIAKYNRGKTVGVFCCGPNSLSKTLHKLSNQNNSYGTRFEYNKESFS
T1 sequence (P13498 1-195 partner): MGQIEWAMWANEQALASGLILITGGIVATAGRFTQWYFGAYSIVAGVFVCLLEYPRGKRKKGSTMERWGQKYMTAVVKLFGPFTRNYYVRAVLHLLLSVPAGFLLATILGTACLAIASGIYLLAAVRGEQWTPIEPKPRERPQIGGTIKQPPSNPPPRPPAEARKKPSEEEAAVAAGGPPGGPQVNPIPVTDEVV
Experiment: Amplex Red activity assay (cellular H2O2 formation in hNOX4 T-REx-293 cells)
Format: cell-based
Conditions: tet-induced 24 h, extracellular H2O2 by Amplex Red, 60 min 25° C., geometric mean if determined several times
How it was run: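 Tet-induced (1 μg/mL, 24 h) HEK293 T-REx cells stably expressing full-length human NOX4, 20 000 cells/well, exposed to compounds (10 concentrations, 50 μM to 100 nM; 1.25% DMSO) for 60 min at 25°C. Extracellular H2O2 detected by Amplex Red resorufin fluorescence (ex 550/em 600 nm) versus vehicle; IC50 calculated.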

SMILES	IC50 [µM]
O=C(Nc1ccc2oc(N3CCC34COC4)nc2c1)c1ccc2c(c1)OCCO2 [Example 160, 2,3-Dihydro-benzo[1,4]dioxine-6-carboxylic acid [2-(6-oxa-1-aza-spiro[3.3]hept-1-yl)-benzooxazol-5-yl]-amide]	0.541
O=C(Nc1ccc2oc(N3CCC34CCC4)nc2c1)c1ccc2c(c1)OCCO2 [Example 161, 2,3-Dihydro-benzo[1,4]dioxine-6-carboxylic acid [2-(1-aza-spiro[3.3]hept-1-yl)-benzooxazol-5-yl]-amide]	0.665
O=C(Nc1ccc2oc(N3CCC34CCOC4)nc2c1)c1ccc2c(c1)OCCO2 (stereo not drawn) [Example 162, 2,3-Dihydro-benzo[1,4]dioxine-6-carboxylic acid [2-(6-oxa-1-aza-spiro[3.4]oct-1-yl)-benzooxazol-5-yl]-amide]	0.954
O=C(Nc1ccc2oc(N3CCC34CCOCC4)nc2c1)c1ccc2c(c1)OCCO2 [Example 163, 2,3-Dihydro-benzo[1,4]dioxine-6-carboxylic acid [2-(7-oxa-1-aza-spiro[3.5]non-1-yl)-benzooxazol-5-yl]-amide]	1.14
O=C(Nc1ccc2oc(N3CCCC3)nc2c1)c1ccc2c(c1)OCCO2 [Example 164, 2,3-Dihydro-benzo[1,4]dioxine-6-carboxylic acid (2-pyrrolidin-1-yl-benzooxazol-5-yl)-amide]	1.28
O=C(Nc1ccc2oc(N3CCCC34COC4)nc2c1)c1ccc2c(c1)OCCO2 [Example 165, 2,3-Dihydro-benzo[1,4]dioxine-6-carboxylic acid [2-(2-oxa-5-aza-spiro[3.4]oct-5-yl)-benzooxazol-5-yl]-amide]	0.764
O=C(Nc1ccc2oc(N3CCCCC3)nc2c1)c1ccc2c(c1)OCCO2 [Example 166, 2,3-Dihydro-benzo[1,4]dioxine-6-carboxylic acid (2-piperidin-1-yl-benzooxazol-5-yl)-amide]	1.5
O=C(Nc1ccc2oc(N3CCC(O)CC3)nc2c1)c1ccc2c(c1)OCCO2 [Example 167, 2,3-Dihydro-benzo[1,4]dioxine-6-carboxylic acid [2-(4-hydroxy-piperidin-1-yl)-benzooxazol-5-yl]-amide]	1.22
O=C(Nc1ccc2oc(N3CCCC(F)(F)C3)nc2c1)c1ccc2c(c1)OCCO2 [Example 168, 2,3-Dihydro-benzo[1,4]dioxine-6-carboxylic acid [2-(3,3-difluoro-piperidin-1-yl)-benzooxazol-5-yl]-amide]	1.14
COC1CCN(c2nc3cc(NC(=O)c4ccc5c(c4)OCCO5)ccc3o2)CC1 [Example 169, 2,3-Dihydro-benzo[1,4]dioxine-6-carboxylic acid [2-(4-methoxy-piperidin-1-yl)-benzooxazol-5-yl]-amide]	0.793
O=C(Nc1ccc2oc(N3CCC(F)(F)CC3)nc2c1)c1ccc2c(c1)OCCO2 [Example 170, 2,3-Dihydro-benzo[1,4]dioxine-6-carboxylic acid [2-(4,4-difluoro-piperidin-1-yl)-benzooxazol-5-yl]-amide]	0.899
O=C(Nc1ccc2oc(N3CCCC4(COC4)C3)nc2c1)c1ccc2c(c1)OCCO2 [Example 171, 2,3-Dihydro-benzo[1,4]dioxine-6-carboxylic acid [2-(2-oxa-6-aza-spiro[3.5]non-6-yl)-benzooxazol-5-yl]-amide]	0.792
O=C(Nc1ccc2oc(N3CCC4(CC3)COC4)nc2c1)c1ccc2c(c1)OCCO2 [Example 172, 2,3-Dihydro-benzo[1,4]dioxine-6-carboxylic acid [2-(2-oxa-7-aza-spiro[3.5]non-7-yl)-benzooxazol-5-yl]-amide]	8.85
O=C(Nc1ccc2oc(N3CCOCC3)nc2c1)c1ccc2c(c1)OCCO2 [Example 173, 2,3-Dihydro-benzo[1,4]dioxine-6-carboxylic acid (2-morpholin-4-yl-benzooxazol-5-yl)-amide]	1.42
CN1CCN(c2nc3cc(NC(=O)c4ccc5c(c4)OCCO5)ccc3o2)CC1 [Example 174, 2,3-Dihydro-benzo[1,4]dioxine-6-carboxylic acid [2-(4-methyl-piperazin-1-yl)-benzooxazol-5-yl]-amide]	1.39
